Values joined by “and” are separate entries in the source; they are usually repeats but may differ in a detail not shown here. Equal entries are not always repeated.
Experiments:
[1] = target: T1, TLR7 (Homo sapiens, UniProt Q9NYK1); details: TLR7-transfected HEK293 cells; cited from earlier work
T1 construct: expressed in transfected cells; host or cells: HEK293
T1 sequence (Q9NYK1 27-1049): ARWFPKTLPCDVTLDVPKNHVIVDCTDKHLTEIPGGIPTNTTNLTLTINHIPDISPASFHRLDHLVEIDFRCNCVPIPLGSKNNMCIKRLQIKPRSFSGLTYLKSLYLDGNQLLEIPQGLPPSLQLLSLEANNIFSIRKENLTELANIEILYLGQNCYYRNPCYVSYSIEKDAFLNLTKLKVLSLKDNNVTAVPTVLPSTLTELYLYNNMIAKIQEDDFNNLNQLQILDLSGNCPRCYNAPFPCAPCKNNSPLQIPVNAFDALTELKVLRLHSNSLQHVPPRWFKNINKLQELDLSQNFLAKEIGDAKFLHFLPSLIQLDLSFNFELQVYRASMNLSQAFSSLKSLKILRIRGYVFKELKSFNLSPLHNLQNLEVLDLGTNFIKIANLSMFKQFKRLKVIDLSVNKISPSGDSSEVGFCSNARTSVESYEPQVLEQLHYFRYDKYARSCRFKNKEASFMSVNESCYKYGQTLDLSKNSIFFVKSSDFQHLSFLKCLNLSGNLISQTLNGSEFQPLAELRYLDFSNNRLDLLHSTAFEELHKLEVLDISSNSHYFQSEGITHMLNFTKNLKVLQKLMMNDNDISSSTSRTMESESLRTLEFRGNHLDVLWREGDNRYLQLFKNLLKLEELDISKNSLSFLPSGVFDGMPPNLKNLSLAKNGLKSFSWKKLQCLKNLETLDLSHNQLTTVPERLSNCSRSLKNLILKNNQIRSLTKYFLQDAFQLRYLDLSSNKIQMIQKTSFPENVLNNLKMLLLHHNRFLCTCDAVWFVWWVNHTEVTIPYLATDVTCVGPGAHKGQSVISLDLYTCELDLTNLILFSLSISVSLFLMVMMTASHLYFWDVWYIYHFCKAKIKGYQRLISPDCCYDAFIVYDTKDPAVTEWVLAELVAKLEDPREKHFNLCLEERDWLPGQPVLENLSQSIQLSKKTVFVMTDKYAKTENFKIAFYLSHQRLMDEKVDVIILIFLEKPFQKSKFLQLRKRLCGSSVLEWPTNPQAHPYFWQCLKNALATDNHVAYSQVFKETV

[2] = target: T2, TLR8 (Homo sapiens, UniProt Q9NR97); details: cited from earlier work
T2 construct: expressed in transfected cells; host or cells: HEK293
T2 sequence (Q9NR97 27-1041): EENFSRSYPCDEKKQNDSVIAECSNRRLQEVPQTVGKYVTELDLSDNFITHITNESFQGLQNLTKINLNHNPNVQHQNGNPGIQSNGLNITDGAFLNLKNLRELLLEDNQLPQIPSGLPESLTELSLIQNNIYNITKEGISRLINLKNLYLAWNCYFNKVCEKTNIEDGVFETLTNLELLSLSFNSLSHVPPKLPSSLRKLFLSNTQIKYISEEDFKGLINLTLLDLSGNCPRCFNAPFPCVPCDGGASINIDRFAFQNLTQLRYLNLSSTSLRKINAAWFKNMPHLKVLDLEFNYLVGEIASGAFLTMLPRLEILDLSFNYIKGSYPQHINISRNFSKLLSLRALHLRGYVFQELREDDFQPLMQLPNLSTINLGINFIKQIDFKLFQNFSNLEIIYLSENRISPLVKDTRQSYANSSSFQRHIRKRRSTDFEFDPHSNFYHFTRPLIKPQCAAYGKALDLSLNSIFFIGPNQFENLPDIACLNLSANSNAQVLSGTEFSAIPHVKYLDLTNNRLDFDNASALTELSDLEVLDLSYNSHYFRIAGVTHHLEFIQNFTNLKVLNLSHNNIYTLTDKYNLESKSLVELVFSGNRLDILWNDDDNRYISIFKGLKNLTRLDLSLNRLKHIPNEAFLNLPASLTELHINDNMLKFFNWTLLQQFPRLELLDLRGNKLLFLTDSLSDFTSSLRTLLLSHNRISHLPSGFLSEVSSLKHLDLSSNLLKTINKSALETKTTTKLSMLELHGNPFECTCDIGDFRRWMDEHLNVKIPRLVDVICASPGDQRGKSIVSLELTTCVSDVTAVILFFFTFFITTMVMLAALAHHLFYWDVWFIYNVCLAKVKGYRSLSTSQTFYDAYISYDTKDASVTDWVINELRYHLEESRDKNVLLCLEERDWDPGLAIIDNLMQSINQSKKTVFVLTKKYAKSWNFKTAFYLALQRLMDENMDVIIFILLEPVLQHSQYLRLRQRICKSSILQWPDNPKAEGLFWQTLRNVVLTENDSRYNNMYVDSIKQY

[3] = target: T1, TLR7; details: cited from earlier work
[4] = In vivo release study (fluorescence IVIS imaging); parameters: species or system non-tumor-bearing mice; details: mouse, in vivo
Description: To evaluate the in vivo release profiles of Cy7 carboxylic acid (a model compound for R848), anti-PD-1, IL-15sa, and 2′3′-cGAMP, hydrogels containing the fluorophore or one of the fluorescently labeled payloads were surgically implanted into non-tumor-bearing mice.
The loading and release properties of the hydrogel were examined in additional experiments. […] It was then confirmed that the hydrogel extends the release of the small molecules and biologics in vivo. Cy7 carboxylic acid (Cy7-CA) was used as a model small molecule payload, as its physical properties are very similar to those of resiquimod (R848). Cy7-CA was administered to non-tumor-bearing mice, either in solution or loaded in a scaffold placed by the fourth mammary fat pad. The mice were assessed by fluorescence IVIS imaging (FIG. 37B), and the data were quantified (FIG. 37C). Whereas a loss of ˜60% of the signal was detected within two hours of administration of the fluorophore in solution, this amount of signal decay required 24 hours for the fluorophore loaded in the hydrogel. Over this time course, there was a […] for the latter group, on average.
To confirm that the hydrogel sustains the release of the small molecule and biologics in vivo, fluorescently labeled versions of 2 ? […]

[5] = system: 4T1-Luc2 cells; assay: Tumor re-challenge of surviving mice; format: in vivo; details: mice with durable survival after loaded hydrogel
Description: The wound was closed with medical clips.
To gain insights into the soluble factors that are associated with the activation of innate and adaptive immune cells, the levels of cytokines in peripheral blood were measured. At multiple time points post-surgery, plasma was collected and subsequently analyzed by multiplexing laser bead technology. […] Indeed, the induction of a memory response was confirmed by re-challenging the surviving mice, 100% of which rejected the freshly inoculated 4T1-Luc2 cells (FIG. 94A).

[6] = system: 4T1-Luc2 syngeneic breast cancer cells; details: for survival with compromised immune system: NK, CD8+ T or CD4+ T cells depleted or IFNAR1 neutralized; for survival benefit as innate immune activator component: hydrogel with IL-15sa and anti-PD-1 (devices 1, 14-16); for efficacy (tumor recurrence, metastasis, survival), in words: scaffold placed in tumor resection site 10 days after inoculation
Description: Seven-week-old female Balb/c mice were inoculated orthotopically with 100,000 4T1-Luc2 syngeneic breast cancer cells (into the fourth mammary fat pad). After 10 days, the mice were anesthetized, tumors were surgically resected, and compositions were placed in the resection site. […] The order of surgeries avoided systematic error by dividing up the groups. Standard follow-up care (wound clips, analgesic) was provided.
For the metastatic breast cancer model, 10^5 4T1-Luc2 or 4T1 cells (in 30 μl DPBS) were inoculated orthotopically into the fourth mammary pad of mice to generate a local tumor mass. Cells were injected without any incision to expose the fat pad. Mice were randomly assigned to treatment groups, and surgery was performed 10 days after tumor inoculation. For the metastatic melanoma and lung cancer models, 10^6B16-BL6 or 5×10^5 LLC cells (in 100 μl DPBS) were inoculated subcutaneously in mice to generate a local tumor mass. Mice were randomly assigned to treatment groups, and surgery was performed when tumor volumes reached ˜600 mm^3. While mice were kept under anesthesia at 2% isoflurane, the tumor was resected, and the hydrogel was placed in the site of the resultant cavity at the time of surgery. The wound was closed with medical clips. Control experiments were performed in which therapy was administered in solution at the site of surgery, intraperitoneally, or intravenously. For tumor re-challenge experiments, 10^4 4T1-Luc2 cells were inoculated in the contralateral fourth mammary fat pad. The surgeries were performed independently at least three times, and the surgeon was often blinded.
After surgery, mice were inspected weekly for tumor recurrence and distal metastasis by bioluminescence imaging (BLI). To this end, 10 min after intraperitoneal injection of D-luciferin (150 mg/kg), a substrate of Luc2, the mice were anesthetized with 2% isoflurane and imaged using an IVIS Spectrum In Vivo Imaging System (Perkin Elmer).
A series of compositions described above in Table 2 were evaluated in viva. In each group of evaluations, seven-week-old female Balb/c mice were inoculated orthotopically with 100,000 4T1-Luc2 syngeneic breast cancer cells (into the fourth mammary fat pad). After 10 days, mice were anesthetized, tumors were surgically resected, and the composition was placed in the resection site. Tumor relapse and metastasis were monitored via imaging over the course of 6 weeks.
Female BALB/cJ mice were inoculated orthotopically with 4T1-Luc2 breast cancer cells in their fourth mammary fat pad. Nine days later, the mice were imaged by bioluminescent IVIS imaging to confirm that the size of the tumors was consistent across animals to enable randomization into groups. On day 10 post-tumor inoculation, tumors (˜100 mm^3) were resected, and device 1 was placed in the tumor resection site. Controls included no treatment (sham), empty hydrogel (device 8/hydrogel 4), or delivery of the triple combination in solution (S+I+P)—via intraperitoneal injection, intravenous injection, or local administration.

[7] = system: 4T1-Luc2 cells; assay: Non-resected orthotopic 4T1-Luc2 tumors: peritumoral hydrogel or intratumoral injection; format: in vivo, mice; details: single intratumoral (IT) injection
Description: In certain embodiments, intraoperative placement of the immunotherapy-loaded hydrogel is required for therapeutic benefit.

CCCCNc1nc(N)c2nc(O)n(Cc3ccc(C(=O)NCC(=O)O)cc3)c2n1 [CL264]
activating concentration, times less than imiquimod [1]: 5-10 times | concentration inducing NF-κB activation [1]: 0.1 µM | concentration without stimulation of TLR8 [2]: > 10 µg/mL

CCCCNc1nc(N)c2nc(O)n(Cc3ccc(C(=O)NCC(=O)NCCCNCCCCNCCCN)cc3)c2n1 [CL307, N1-glycinyl[4-((6-amino-2-(butylamino)-8-hydroxy-9H-purin-9-yl)methyl)benzoyl]spermine]
concentration inducing robust NF-κB activation [3]: ≤ 20 nM and ≤ 10 ng/ml

C[N+]1=C(/C=C/C2=CC(=C/C=C3/N(CCCCCC(=O)O)c4ccccc4C3(C)C)CCC2)C(C)(C)c2ccccc21.[Cl-] [Cy7-CA, Cy7 carboxylic acid]
increase in signal, hydrogel vs solution [4]: roughly three

CCOCc1nc2c(N)nc3ccccc3c2n1CC(C)(C)O [Device R848, resiquimod]
surviving mice that rejected / survived re-challenge [5]: 100% | survival with compromised immune system [6]: exhibited reduced survival | survival benefit by mode of administration ([6]; hydrogel vs solution (weekly IV, weekly IP, local with empty hydrogel)): survival benefit was observed only when R848 was loaded in the hydrogel | survival benefit as innate immune activator component [6]: conferred meaningful benefit | tolerability (body weight) ([6]; mouse, in vivo): well tolerated | efficacy (tumor recurrence, metastasis, survival), in words [6]: prevented most effectively | survival benefit ([6]; three consecutive daily IP injections (200 μg)): failed to confer robust survival benefit | survival [7]: did not prolong survival

Cc1cccc(-c2[nH]c(CNc3ccccc3F)nc2-c2ccc3ncnn3c2)n1 [EW7197]
efficacy of hydrogel with IL-15 superagonist, anti-PD-1 and the small molecule ([6]; small molecule dissolved in DMSO): provided less efficacious results

Nc1ncnc2c1ncn2C1O[C@@H]2CO[P@@](=O)([S-])O[C@H]3[C@@H](O)[C@H](n4cnc5c(N)ncnc54)O[C@@H]3CO[P@@](=O)([S-])O[C@@H]1[C@@H]2O.[Na+].[Na+] (stereo partly shown) [STING-RR, 2′3′-c-di-AM(PS)2 (Rp,Rp)]
surviving mice that rejected / survived re-challenge [5]: 100% | survival with compromised immune system [6]: exhibited reduced survival | efficacy (tumor recurrence, metastasis, survival), in words [6]: prevented most effectively | survival [7]: did not prolong survival

CCOC(=O)C1=Cc2ccc(-c3cccc(C#N)c3)cc2N=C(N)C1 [TL8-506]
potency in inducing NF-κB activation relative to CL075 ([2]; TLR8-transfected HEK293 cells): ~25 × | potency in inducing NF-κB activation relative to R848 ([2]; TLR8-transfected HEK293 cells): ~50 ×

IL-21: pleiotropic cytokine
survival benefit as cytokine component ([6]; hydrogel with 2′3′-cGAMP and anti-PD-1 (devices 1, 13)): had little impact

polyinosinic:polycytidylic acid [poly(I:C)]
survival benefit as innate immune activator component [6]: had little impact
